The values that follow come from patent US9783536B2, “Nitrogen-containing heterocyclic compound or salt thereof” (FUJIFILM Corporation, priority 2013, dated 2017).

Each structure is given as a SMILES string. Structures can show the parent of a compound that is named as a salt.

For one experiment, the target named is T1, human PI3Kα protein (Homo sapiens, UniProt P42336).
T1 construct: purchased Carna Biosciences, Inc; host or cells: baculovirus expression system
Briefly: PI3Kα enzyme assay (ADP-Glo). The experiment is classed as biochemical. Particulars: 4.5 nmol/L PI3Kα, PIP2 50 μmol/L, ATP 100 μmol/L; read-out: PI3Kα enzyme inhibitory activity. In short, it runs like this:
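Biotinylated human PI3Kα (baculovirus-expressed, 4.5 nmol/L) pre-incubated 15 min with compound in Tris-HCl pH 7.5, MgCl2, BSA; reaction 60 min at 25° C with 50 μmol/L PIP2 and 100 μmol/L ATP final. ADP quantified by ADP-Glo luminescence; IC50 calculated.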
In general terms: ADP-Glo first removes unused ATP, then detects ADP through luciferase.

In experiment [1] the target is T2, GST fusion human ERK2 protein (Homo sapiens, UniProt P28482).
T2 construct: purchased Carna Biosciences, Inc; host or cells: E. coli expression system
T2 sequence (P28482 whole entry, the tested form may be a part): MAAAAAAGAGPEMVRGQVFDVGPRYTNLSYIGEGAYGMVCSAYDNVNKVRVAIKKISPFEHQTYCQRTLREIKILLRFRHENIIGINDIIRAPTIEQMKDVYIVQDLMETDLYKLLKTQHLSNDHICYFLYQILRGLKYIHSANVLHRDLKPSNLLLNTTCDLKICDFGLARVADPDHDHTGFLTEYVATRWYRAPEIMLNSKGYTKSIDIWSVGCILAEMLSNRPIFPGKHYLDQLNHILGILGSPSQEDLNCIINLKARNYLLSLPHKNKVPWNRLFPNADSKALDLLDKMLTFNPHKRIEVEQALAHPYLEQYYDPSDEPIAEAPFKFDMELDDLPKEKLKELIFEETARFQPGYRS
Nature of the experiment: ERK2 enzyme assay (1). The experiment is classed as biochemical. Particulars: 2.5 nmol/L ERK2, ATP 43.1 μmol/L; read-out: ERK2 enzyme inhibitory activity (1). The procedure:
In an ERK2 enzyme assay, GLUTATHIONE S-TRANSFERASE (GST) FUSION HUMAN ERK2 PROTEIN (manufactured by Carna Biosciences, Inc.), which was produced by using an E. coli expression system, was used.
12 μL of a reaction liquid (2.5 nmol/L ERK2, 100 mmol/L Hepes, 10 mmol/L MgCl2, 1.5 mmol/L DTT, 0.003% Brij35, pH 7.5) including ERK2 protein and a test compound having a predetermined concentration was allowed to stand at room temperature for 15 minutes. Then, 3 μL of a mixture liquid of FL-PEPTIDE8 (5-FAM-IPTSPITTTYFFFKKK-COOH) (manufactured by Caliper Life Sciences), which is substrate peptide, and ATP (manufactured by Sigma-Aldrich Co. LLC.) was added thereto such that the final concentrations thereof became 4.25 μmol/L and 43.1 μmol/L, respectively, and an enzyme reaction was performed by allowing to stand at 25° C. for 120 minutes.
After the reaction, the enzyme reaction was stopped by adding 30 μL of a reaction stopper liquid (100 mmol/L HEPES, 11.2 mmol/L EDTA, 5.6% Brij35, pH 7.5) including a 0.5% COATING REAGENT 8 (trade name, manufactured by Perkin Elmer Inc.) thereto. Then, phosphorylated peptide and non-phosphorylated peptide were separated using LABCHIP EZ READER (trade name, manufactured by Caliper Life Sciences), and the porportion of the phosphorylated peptide was quantified.
The inhibitory activities of the compounds were evaluated using IC50 (50% inhibitory concentration). The IC50 was calculated using XLFIT (trade name, manufactured by ID Business Solutions).

T1 sequence (P42336 whole entry): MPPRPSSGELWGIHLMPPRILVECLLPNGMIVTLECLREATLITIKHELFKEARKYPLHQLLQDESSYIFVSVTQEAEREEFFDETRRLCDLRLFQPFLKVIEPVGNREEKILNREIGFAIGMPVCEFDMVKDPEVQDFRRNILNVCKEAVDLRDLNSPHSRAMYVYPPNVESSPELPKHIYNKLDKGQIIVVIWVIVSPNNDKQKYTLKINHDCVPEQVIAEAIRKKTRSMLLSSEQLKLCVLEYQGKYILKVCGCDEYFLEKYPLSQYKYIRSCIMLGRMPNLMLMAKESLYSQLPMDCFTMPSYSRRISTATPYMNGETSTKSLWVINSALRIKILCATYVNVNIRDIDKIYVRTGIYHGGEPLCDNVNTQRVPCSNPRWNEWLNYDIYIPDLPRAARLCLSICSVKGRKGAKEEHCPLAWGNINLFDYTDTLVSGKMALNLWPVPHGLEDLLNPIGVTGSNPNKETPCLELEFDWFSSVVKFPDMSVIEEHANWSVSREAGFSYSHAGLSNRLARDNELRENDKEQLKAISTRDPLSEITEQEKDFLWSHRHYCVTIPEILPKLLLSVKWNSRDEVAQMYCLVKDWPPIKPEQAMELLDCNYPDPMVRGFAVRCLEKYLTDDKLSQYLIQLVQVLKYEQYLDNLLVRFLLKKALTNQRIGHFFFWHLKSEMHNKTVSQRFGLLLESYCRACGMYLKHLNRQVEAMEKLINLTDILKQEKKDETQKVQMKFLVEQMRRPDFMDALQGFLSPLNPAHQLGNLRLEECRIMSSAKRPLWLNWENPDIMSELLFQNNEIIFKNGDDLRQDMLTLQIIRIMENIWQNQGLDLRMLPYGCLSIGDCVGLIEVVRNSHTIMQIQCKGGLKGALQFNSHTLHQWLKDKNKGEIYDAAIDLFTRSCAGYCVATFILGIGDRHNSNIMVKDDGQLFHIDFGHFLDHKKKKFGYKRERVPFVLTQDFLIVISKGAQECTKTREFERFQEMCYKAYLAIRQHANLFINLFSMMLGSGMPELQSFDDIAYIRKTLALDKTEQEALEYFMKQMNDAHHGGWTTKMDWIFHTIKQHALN
T1 sequence (P27986 whole entry partner): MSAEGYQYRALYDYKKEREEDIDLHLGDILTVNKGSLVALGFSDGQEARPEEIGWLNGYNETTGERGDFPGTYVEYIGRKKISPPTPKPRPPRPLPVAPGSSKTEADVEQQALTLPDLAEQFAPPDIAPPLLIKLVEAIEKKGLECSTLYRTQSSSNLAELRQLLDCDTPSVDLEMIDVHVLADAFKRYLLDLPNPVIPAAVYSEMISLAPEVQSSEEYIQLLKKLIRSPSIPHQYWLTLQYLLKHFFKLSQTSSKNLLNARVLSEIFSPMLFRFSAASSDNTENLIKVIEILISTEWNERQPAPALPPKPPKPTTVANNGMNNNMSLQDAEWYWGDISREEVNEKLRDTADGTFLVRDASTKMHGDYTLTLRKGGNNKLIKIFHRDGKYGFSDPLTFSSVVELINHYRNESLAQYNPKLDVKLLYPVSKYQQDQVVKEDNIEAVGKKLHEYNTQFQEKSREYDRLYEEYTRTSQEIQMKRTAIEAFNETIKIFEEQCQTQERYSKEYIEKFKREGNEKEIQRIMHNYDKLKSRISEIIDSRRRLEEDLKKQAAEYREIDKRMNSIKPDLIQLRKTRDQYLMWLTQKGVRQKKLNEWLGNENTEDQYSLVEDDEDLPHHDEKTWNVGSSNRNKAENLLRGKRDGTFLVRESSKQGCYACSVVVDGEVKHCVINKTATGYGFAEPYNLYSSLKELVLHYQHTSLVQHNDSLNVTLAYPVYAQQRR

As to `CN1CCN(c2cnc3ccc(Nc4nnc(C5CCCC5)s4)nc3c2)CCC1=O` [Example 0064, 1-(6-((5-cyclopentyl-1,3,4-thiadiazol-2-yl)amino)-1,5-naphthyridin-3-yl)-4-methyl-1,4-diazepan-5-one hydrochloride], the IC50 was 1000 to 10000 nM at human PI3Kα protein and under 1000 nM in experiment [1].

`CC(=O)N1CCC(Nc2cnc3ccc(Nc4nnc(C5CCCC5)s4)nc3c2)C1` (centres unmarked) [Example 0065]: the IC50 was 1000 to 10000 nM at human PI3Kα protein and under 1000 nM in experiment [1].

In the case of `c1cc(N2CCOCC2)ncc1Nc1cnc2ccc(Nc3nnc(C4CCCC4)s3)nc2c1` [Example 0066], the IC50 (at human PI3Kα protein; in experiment [1]) was under 1000 nM each time.

On to `COc1ccc(Nc2cnc3ccc(Nc4nnc(C5CCCC5)s4)nc3c2)cn1` [Example 0067], for which the IC50 (on human PI3Kα protein; in experiment [1]) was under 1000 nM each time.

`c1ccc(CNc2cnc3ccc(Nc4nnc(C5CCCC5)s4)nc3c2)nc1` [Example 0068]: the results for the IC50 (at human PI3Kα protein; in experiment [1]) were 1000 to 10000 nM and under 1000 nM, respectively.

For `c1ccc(-c2ccc(Nc3cnc4ccc(Nc5nnc(C6CCCC6)s5)nc4c3)cn2)cc1` [Example 0069], the IC50 fell in the range of 10000 to 50000 nM at human PI3Kα protein and 1000 to 10000 nM in experiment [1].

Regarding `c1ccc(-c2cncc(Nc3cnc4ccc(Nc5nnc(C6CCCC6)s5)nc4c3)c2)cc1` [Example 0070], the IC50 (at human PI3Kα protein; in experiment [1]) was under 1000 nM in each case.

As for `c1cnn(-c2cncc(Nc3cnc4ccc(Nc5nnc(C6CCCC6)s5)nc4c3)c2)c1` [Example 0073], the IC50 (on human PI3Kα protein; in experiment [1]) was under 1000 nM throughout.

Take `Cc1ncc(Nc2cnc3ccc(Nc4nnc(C5CCCC5)s4)nc3c2)cc1-n1nccn1` [Example 0074]: the IC50 (on human PI3Kα protein; in experiment [1]) was under 1000 nM each time.

In the case of `c1ccc2c(Nc3cnc4ccc(Nc5nnc(C6CCCC6)s5)nc4c3)cncc2c1` [Example 0075], the results for the IC50 (on human PI3Kα protein; in experiment [1]) were under 1000 nM and 1000 to 10000 nM, respectively.

On to `CC(=O)N1CCCC(Nc2cnc3ccc(Nc4nnc(C5CCCC5)s4)nc3c2)C1` (centres unmarked) [Example 0076], for which the IC50 (on human PI3Kα protein; in experiment [1]) was under 1000 nM throughout.

Consider `COc1ncccc1Nc1cnc2ccc(Nc3nnc(C4CCCC4)s3)nc2c1` [Example 0077], for which the IC50 (at human PI3Kα protein; in experiment [1]) was 1000 to 10000 nM in each case.

Turning to `Clc1cc(Nc2cnc3ccc(Nc4nnc(C5CCCC5)s4)nc3c2)cnc1-n1cccn1` [Example 0078], the IC50 (on human PI3Kα protein; in experiment [1]) was under 1000 nM each time.

As to `Cc1ccncc1Nc1cnc2ccc(Nc3nnc(C4CCCC4)s3)nc2c1` [Example 0079], the IC50 on human PI3Kα protein was 1000 to 10000 nM; in experiment [1], under 1000 nM.

Regarding `COc1cc(Nc2cnc3ccc(Nc4nnc(C5CCCC5)s4)nc3c2)cc(OC)c1` [Example 0081], the figures for the IC50 (on human PI3Kα protein; in experiment [1]) were 1000 to 10000 nM and under 1000 nM, respectively.

Consider `c1ncc(OCCN2CCOCC2)cc1Nc1cnc2ccc(Nc3nnc(C4CCCC4)s3)nc2c1` [Example 0082], for which the IC50 (at human PI3Kα protein; in experiment [1]) was under 1000 nM in each case.

Regarding `c1ncc(OCCN2CCCC2)cc1Nc1cnc2ccc(Nc3nnc(C4CCCC4)s3)nc2c1` [Example 0083], the IC50 (on human PI3Kα protein; in experiment [1]) was under 1000 nM throughout.

Turning to `CS(=O)(=O)N1CCC(Nc2cnc3ccc(Nc4nnc(C5CCCC5)s4)nc3c2)CC1` [Example 0098], the IC50 (on human PI3Kα protein; in experiment [1]) was under 1000 nM in each case.

For the compound `CC(C)c1cncc(Nc2cnc3ccc(Nc4nnc(C5CCCC5)s4)nc3c2)c1` [Example 0099], the IC50 (at human PI3Kα protein; in experiment [1]) was under 1000 nM each time.

As to `CC(C)Oc1cncc(Nc2cnc3ccc(Nc4nnc(C5CCCC5)s4)nc3c2)c1` [Example 0100], the IC50 on human PI3Kα protein is 1000 to 10000 nM; in experiment [1], under 1000 nM.

In the case of `c1ncc(N2CCCCC2)cc1Nc1cnc2ccc(Nc3nnc(C4CCCC4)s3)nc2c1` [Example 0101], the IC50 (at human PI3Kα protein; in experiment [1]) was under 1000 nM each time.

On to `CN1CCN(c2cncc(Nc3cnc4ccc(Nc5nnc(C6CCCC6)s5)nc4c3)c2)CC1` [Example 0102], for which the IC50 (on human PI3Kα protein; in experiment [1]) was under 1000 nM throughout.

For the compound `CC(C)(C)c1cncc(Nc2cnc3ccc(Nc4nnc(C5CCCC5)s4)nc3c2)c1` [Example 0103], the IC50 (at human PI3Kα protein; in experiment [1]) was under 1000 nM throughout.

For `O=C(c1ccc(Nc2cnc3ccc(Nc4nnc(C5CCCC5)s4)nc3c2)cc1)N1CCOCC1` [Example 0104], the results for the IC50 (at human PI3Kα protein; in experiment [1]) were 1000 to 10000 nM and under 1000 nM, respectively.

As for `O=C(Cc1ccc(Nc2cnc3ccc(Nc4nnc(C5CCCC5)s4)nc3c2)cc1)N1CCOCC1` [Example 0105], the IC50 (on human PI3Kα protein; in experiment [1]) was under 1000 nM throughout.

For the compound `O=C(c1ccc(Nc2cnc3ccc(Nc4nnc(C5CCCC5)s4)nc3c2)cn1)N1CCOCC1` [Example 0106], the IC50 (on human PI3Kα protein; in experiment [1]) was under 1000 nM in each case.

In the case of `c1cc(Nc2cnc3ccc(Nc4nnc(C5CCCC5)s4)nc3c2)ccc1CCN1CCOCC1` [Example 0107], the IC50 (on human PI3Kα protein; in experiment [1]) was under 1000 nM each time.

With `CS(=O)(=O)N1CCC(Nc2cnc3ccc(Nc4nnc(C5CCCC5)s4)nc3c2)C1` (centres unmarked) [Example 0108], the IC50 on human PI3Kα protein is 1000 to 10000 nM; in experiment [1] it was under 1000 nM.

Turning to `CS(=O)(=O)N1CCCC(Nc2cnc3ccc(Nc4nnc(C5CCCC5)s4)nc3c2)C1` (centres unmarked) [Example 0109], the IC50 on human PI3Kα protein was under 1000 nM; in experiment [1], 1000 to 10000 nM.

`CCc1nn(C)cc1-c1cnc2ccc(Nc3nnc(C4CCCC4)s3)nc2c1` [Example 0110, 5-cyclopentyl-N-(7-(3-ethyl-1-methyl-1H-pyrazol-4-yl)-1,5-naphthyridin-2-yl)-1,3,4-thiadiazole-2-amine]: the IC50 (on human PI3Kα protein; in experiment [1]) was under 1000 nM in each case.

`CC(C)c1cnc(Nc2ccc3ncc(-c4cnn(CCCN5CCCC5)c4)cc3n2)s1` [Example 0119]: the IC50 (on human PI3Kα protein; in experiment [1]) was under 1000 nM in each case.

For the compound `CC(C)c1cnc(Nc2ccc3ncc(-c4cnn(C)c4)cc3n2)s1` [Example 0123, 5-isopropyl-N-(7-(1-methyl-1H-pyrazol-4-yl)-1,5-naphthyridin-2-yl)thiazole-2-amine], the IC50 (on human PI3Kα protein; in experiment [1]) was under 1000 nM in each case.

For the compound `CC(C)c1nnc(Nc2ccc3ncc(-c4cn(C)nc4C(C)C)cc3n2)s1` [Example 0125], the IC50 (at human PI3Kα protein; in experiment [1]) was under 1000 nM throughout.

Turning to `c1nc2ccc(Nc3ncc(C4CCCC4)s3)nc2cc1-c1cnn(CCCN2CCCC2)c1` [Example 0126, 5-cyclopentyl-N-(7-(1-(3-(pyrrolidin-1-yl)propyl)-1H-pyrazol-4-yl)-1,5-naphthyridin-2-yl)thiazole-2-amine], the IC50 (at human PI3Kα protein; in experiment [1]) was under 1000 nM throughout.

As for `Cn1cc(-c2cnc3ccc(Nc4ncc(C5CCCC5)s4)nc3c2)cn1` [Example 0127], the IC50 was 1000 to 10000 nM at human PI3Kα protein and under 1000 nM in experiment [1].

Regarding `CC(C)c1nnc(Nc2ccc3ncc(-c4cn(C)nc4-c4ccccn4)cc3n2)s1` [Example 0136, 5-isopropyl-N-(7-(1-methyl-3-(pyridin-2-yl)-1H-pyrazol-4-yl)-1,5-naphthyridin-2-yl)-1,3,4-thiadiazole-2-amine], the IC50 (on human PI3Kα protein; in experiment [1]) was under 1000 nM throughout.

Regarding `COCc1csc(Nc2ccc3ncc(-c4cnn(C)c4)cc3n2)n1` [Example 0141], the IC50 (on human PI3Kα protein; in experiment [1]) was 1000 to 10000 nM throughout.
